Data reported in US7678918B2, “Intermediates for imidazonaphthyridines” (3M Innovative Properties Company, priority 1997, dated 2010).
Where a name gives a salt, the structure may show the parent alone.

Compound	melting point
CCCCc1nc2c(N)nc3cccnc3c2n1CCNC(=O)CCc1ccccc1 (as salt: hydrochloride) [Example 96, N^1-[2-(4-Amino-2-butyl-1H-imidazo[4,5-c][1,5]naphthyridin-1-yl)ethyl]-3-phenylpropanamide Hydrochloride]	183 to 185 °C
CC(C)Cn1cnc2c(N)nc3ncccc3c21 (hydrate or solvate) [Example 9, 1-(2-Methylpropyl)-1H-imidazo[4,5-c][1,8]naphthyridin-4-amine hydrate]	325 to 330 °C (dec.)
CCCCc1nc2c(N)nc3c(c2n1CC(C)C)CCCN3 (hydrate or solvate) [Example 13, 2-Butyl-6,7,8,9-tetrahydro-1-(2-methylpropyl) 1H-imidazo[4,5-c][1,8]naphthyridin-4-amine]	81 to 84 °C
CCCCc1nc2c(N)nc3cccnc3c2n1CCCCNC(=O)c1ccc(N2CCOCC2)nc1 (hydrate or solvate) [Example 106, N^1-[4(4-Amino-2-butyl-1H-imidazo[4,5-c][1,5]naphthyridin-1-yl)butyl]-6-morpholinonicotinamide]	95 to 100 °C
Cc1nnnn1-c1ncccc1C(=O)O [Example 1, 2-(5-Methyl-1H-tetrazol-1-yl)nicotinic Acid]	178 to 180 °C
Oc1cc2nnnn2c2ncccc12 [Example 3, Tetrazolo[1,5-a][1,8]naphthyridin-5-ol]	236 °C (dec.)
CC(C)Cn1nnn2c3ncccc3c3ncnc-3c12 [Example 8, 1-(2-Methylpropyl)-1H-tetrazolo[1,5-a]imidazo[4,5-c][1,8]naphthyridine]	248 to 250 °C (dec.)
Cc1nnnn1-c1cnccc1C(=O)O [Example 14, 3-(5-Methyl-1H-tetrazol-1-yl)pyridine-4-carboxylic acid]	214 to 215 °C (dec.)
CC(C)CNc1c([N+](=O)[O-])cnc2cccnc12 [Example 29, N^4-(2-Methylpropyl)-3-nitro[1,5]naphthyridin-4-amine]	97 to 99 °C
CC(C)Cn1cnc2cnc3cccnc3c21 [Example 30, 1-(2-Methylpropyl)-1H-imidazo[4,5-c][1,5]naphthyridine]	82 to 84 °C
Cc1nc2cnc3cccnc3c2n1CC(C)C [Example 34, 2-Methyl-1-(2-methylpropyl)-1H-imidazo[4,5-c][1,5]naphthyridine]	118 to 119 °C

The remaining lines, values ahead:

melting point	Compound
247 to 248 °C (dec.)	O.Oc1cc2nnnn2c2cnccc12 (hydrate or solvate)
229 to 230 °C (dec.)	Clc1cc2nnnn2c2ncccc12 [Example 4, 5-Chlorotetrazolo[1,5-a][1,8]naphthyridine]
171 °C (dec.)	CC(C)CNc1c([N+](=O)[O-])c2nnnn2c2ncccc12 [Example 6, N^5-(2-Methylpropyl)-4-nitrotetrazolo[1,5-a][1,8]naphthyridin-5-amine]
176 to 177 °C	Clc1cc2nnnn2c2cnccc12 [Example 17, 5-Chlorotetrazolo[1,5-a][1,7]naphthyridine]
220 to 221 °C	CC(C)CNc1cc2nnnn2c2cnccc12 [Example 18, N^5-(2-Methylpropyl)tetrazolo[1,5-a][1,7]naphthyridin-5-amine]
173 to 174 °C	CC(C)CNc1c([N+](=O)[O-])c2nnnn2c2cnccc12 [Example 19, N^5-(2-Methylpropyl)-4-nitrotetrazolo[1,5-a][1,7]naphthyridin-5-amine]
203 to 204.5 °C	CC(C)CNc1c(N)c2nnnn2c2cnccc12 [Example 20, N^5-(2-Methylpropyl)tetrazolo[1,5-a][1,7]naphthyridin-4,5-diamine]
181 to 182.5 °C	CC(C)Cn1nnc2c3ncnc-3c3ccncc3n21 [Example 21, 1-(2-Methylpropyl)-1H-tetrazolo[1,5-a]imidazo[4,5-c][1,7]naphthyridine]
